First: COc1ccc(-n2nc(C[C@H](C(=O)[O-])c3cccc(C)c3)cc2-c2ccc(Cl)c(Cl)c2)cc1.[Na+] (stereo in doubt) [Example 505]
Second: CON(C)C(=O)c1ccc(Cl)c(Cl)c1 [Example 511, 3,4-Dichloro-N-methoxy-N-methyl-benzamide]
The melting point of the first is higher: 280 to 285 °C for the first, 39.5 to 43.2 °C for the second.

COc1ccc(-n2nc(C[C@H](C(=O)[O-])c3cccc(C)c3)cc2-c2ccc(Cl)c(Cl)c2)cc1.[Na+] [Example 1, (S)-Sodium; 3-[5-(3,4-dichloro-phenyl)-1-(4-methoxy-phenyl)-1H-pyrazol-3-yl]-2-m-tolyl-propionate] showed a melting point of 295.5 to 297.5 °C.
